# Reference: ChEMBL document CHEMBL3045837, “Tobacco mosaic virus (TMV) inhibitors from Picrasma quassioides Benn” (J Agric Food Chem, 2009)
# pEC50: −log10 of the molar value. Active and inactive are the calls of the source. The rule behind the calls is not given here.
# Columns and labels:
# [1] = system: Tobacco mosaic virus; experiment: Antiviral activity against Tobacco mosaic virus U1 (TMV) infected Nicotiana glutinosa leaves assessed as inhibition of viral infection at 50 ug/mL using compound pre-treated virus suspension in presence of 25 ug/mL quassinoid nigakilactone B measured 5 to 6 days after compound exposure; assay type: functional
# [2] = system: Tobacco mosaic virus; experiment: Antiviral activity against Tobacco mosaic virus U1 (TMV) infected Nicotiana tabacum cv. K326 leaves assessed as inhibition of viral replication at 50 ug/mL measured 48 hr after compound exposure by leaf-disk method; assay type: functional; conditions: U1, 48 h
# [3] = system: Tobacco mosaic virus; experiment: Antiviral activity against Tobacco mosaic virus U1 (TMV) infected Nicotiana tabacum cv. K326 leaves assessed as inhibition of viral replication measured 48 hr after compound exposure by leaf-disk method; assay type: functional, organism-based; conditions: U1, 48 h
# [4] = system: Tobacco mosaic virus; experiment: Antiviral activity against Tobacco mosaic virus U1 (TMV) infected Nicotiana glutinosa leaves assessed as inhibition of viral replication at 50 ug/mL in presence of 25 ug/mL quassinoid nigakilactone B measured 48 hr after compound exposure by half leaf method; assay type: functional
# [5] = system: Tobacco mosaic virus; experiment: Antiviral activity against Tobacco mosaic virus U1 (TMV) infected Nicotiana glutinosa leaves assessed as inhibition of viral infection at 50 ug/mL using compound pre-treated virus suspension measured 5 to 6 days after compound exposure; assay type: functional; conditions: U1, in Nicotiana glutinosa
# [6] = system: Tobacco mosaic virus; experiment: Antiviral activity against Tobacco mosaic virus U1 (TMV) infected Nicotiana tabacum cv. K326 leaves assessed as inhibition of viral replication at 50 ug/mL in presence of 25 ug/mL quassinoid nigakilactone B measured 48 hr after compound exposure by leaf-disk method; assay type: functional
# [7] = system: Tobacco mosaic virus; experiment: Antiviral activity against Tobacco mosaic virus U1 (TMV) infected Nicotiana tabacum cv. K326 leaves assessed as inhibition of viral replication in presence of 25 ug/mL quassinoid nigakilactone B measured 48 hr after compound exposure by leaf-disk method; assay type: functional, organism-based; conditions: U1, 48 h
# [8] = system: Tobacco mosaic virus; experiment: Antiviral activity against Tobacco mosaic virus U1 (TMV) infected Nicotiana glutinosa leaves assessed as inhibition of viral replication at 50 ug/mL measured 48 hr after compound exposure by half leaf method; assay type: functional; conditions: U1, in Nicotiana glutinosa
# [9] = system: Tobacco mosaic virus; experiment: Inhibition of Tobacco mosaic virus U1 (TMV) coat protein accumulation using virus infected Nicotiana tabacum cv. K326 leaves at 50 ug/mL by SDS-PAGE and Western blotting method; assay type: functional, organism-based
# [10] = system: Tobacco mosaic virus; experiment: Inhibition of Tobacco mosaic virus U1 (TMV) coat protein accumulation using virus infected Nicotiana tabacum cv. K326 leaves by SDS-PAGE and Western blotting method; assay type: functional, organism-based
SMILES,inhibition (INH) [1],inhibition at 50 µg/mL [2],pEC50 [3],inhibition (INH) [4],inhibition at 50 µg/mL [5],inhibition (INH) [6],pEC50 [7],inhibition at 50 µg/mL [8],inhibition [9],inhibition [10]
COc1cccc2c3c([nH]c12)C(=O)NC(=O)C3=O,55.9%,35.1%,3.59,47.3%,50%,59.8%,3.74,39.5%,–,–
C=Cc1ncc(OC)c2c1[nH]c1c(OC)cccc12,58.3%,39.7%,–,47.1%,53.3%,63%,–,38.5%,–,–
CNCC(=O)N[C@@H](CO)C(=O)N[C@H]1[C@H](O)[C@@H](O)[C@H](n2ccc(N)nc2=O)O[C@@H]1C(N)=O [NINGNANMYCIN],55.6%,51%,3.87,53.8%,60%,52.6%,3.89,54.5%,–,–
COC1=C[C@@H](C)[C@@H]2C[C@H]3OC(=O)C[C@H]4[C@@H](C)[C@H](OC)[C@@H](O)[C@H]([C@@]2(C)C1=O)[C@@]34C [NIGAKILACTONE B],–,3.2%,–,–,10%,–,–,6.7%,inactive,–
O=C1NC(=O)c2[nH]c3ccccc3c2C1=O,52.1%,29.5%,–,33.3%,44.4%,35.8%,–,29.4%,–,–
COc1cc2nccc3c4ccccc4n(c1=O)c23 [5-METHOXYCANTHINONE],58.3%,27.5%,–,50%,36.4%,45.7%,–,40%,–,–
COc1c(O)c2nccc3c4ccccc4n(c1=O)c23 [PICRASIDINE Q],66.7%,25.6%,–,53.8%,42.9%,52.6%,–,35.7%,–,–
COc1cccc2c1[nH]c1c(CCC(=O)c3nccc4c3[nH]c3ccccc34)ncc(OC)c12,68.3%,28.9%,3.88,52.4%,45.5%,64.8%,4.11,39.4%,–,–
COC(=O)c1ncc(O)c2c1[nH]c1ccccc12,69.2%,45.7%,–,55.6%,60%,62.3%,–,41.7%,–,–
"COc1c(OC)c2nccc3c4ccccc4n(c1=O)c23 [4,5-DIMETHOXYCANTHIN-6-ONE]",61.1%,42.6%,3.72,43.8%,58.3%,59%,3.89,33.3%,–,–
CCc1nccc2c1[nH]c1c(OC)cccc12,50%,20.9%,–,36.4%,45.5%,48.4%,–,25%,–,–
COC(=O)c1nccc2c1[nH]c1ccccc12,73.3%,60.4%,3.75,68.4%,71.4%,71.9%,3.94,47.4%,–,Dose-dependent effect
